# Assay results from patent US5214034A, “Catechol derivatives, and preventive and remedial preparations for regressive disorders in the central nervous system containing the same” (priority 1986, dated 1993).
# Where two headings read alike, the source gives them in different places.
# Columns and labels:
# [1] = system: production and secretion of NGF in brain astroglial cells; test: Promoting activity for the production and secretion of NGF in brain astroglial cells of mouse (ELISA)
# Procedure: The experiment was performed by inducing the astroglial cells from mouse forebrain to culture system according to the procedures of S. Furukawa et al. which is described in Biochem. Biophys. Res. Commun., 136, 57-63 (1986).
# That is, forebrains of 8-day old mice were dissected out and cut into small pieces. […] Cells and cell clamps were recovered by centrifugation at 200 xg for 5 minutes. They were cultured in Dulbecco modified Eagle's medium (a product of Gibco Co. hereinafter abbreviated as DMEM) containing 10% of fetal calf serum, […] of penicillin, and 50 μg/ml of streptomycin, for 10 to 14 days with medium changes every 3 days. After completing confluency, the cells were dissociated by trypsin treatment and recultured in new culture flasks. This procedure was repeated further twice and more. […] The cells will hereinafter be referred to as astroglial cells.
# Astroglial cells were innoculated in 24-well plates having a well surface area of 2.1 cm^2 (a product of Falcon Co.) at a cell density of about 3×10^4 cells/well and cultured for 3 days in DMEM . medium supplemented with 10% of fetal calf serum. After completing confluency about 10^7 cells/well), the medium was changed to DMEM medium (0.5 ml/well) supplemented with 0.5% of bovine serum albumin ((fraction V) and cultured for 3 days. The culture was further continued with medium changes every 3 days. After cells were practically synchronized in the quiscent stage, the medium was changed to 0.5 ml of the medium supplemented with 0.5% of bovine serum albumin and containing a prescribed concentration of test sample as illustrated in Tables. […] Data are expressed as fold increase in NGF content over that in the absence of the test sample. […] Data are presented as means ±SE of four determinations.
# [2] = system: production and secretion of NGF on L-M cells; test: Promoting action for the production and secretion of NGF on L-M cells of mouse (ELISA); assay type: cell-based; conditions: Mus musculus
# Excerpt: Catecholamines have also been found in a relatively high concentration to accelerate these functions without being mediated by adrenergic receptors [Y. Furukawa et al., J. Biol. Chem., 261, 6039-6047 (1986)].
# The compound having a high activity in Table 1, that is, the catechol derivative having a n-alkyl group in the 3 or 4 position on the ring has been observed an acute cell toxicity in higher concentrations. The toxicity was considered the result of two hydroxyl groups in the catechol structure. Then the hydroxyl groups were esterified or etherified and the resulting derivative was examined the effect on the activity for the production and secretion of NGF.
# The experiment was performed according to the procedures of Y. Furukawa et al. which is described in J. Bis Chem., 261, 6039-6047 (1986).
# The medium was cultured for 3 days at a temperature of 37° C. After completing the confluency (about 10^6 cells/well), the medium was changed to Medium 199 (0.5 ml/well) containing 0.5% bovine serum albumin (Fraction V, a product of Armour Co.). The sample of the derivative is contained in the medium at a prescribed concentration as illustrated in the Tables.
# [3] = 24 h, read-out: Ratio of NGF increase
# [4] = 24 h, read-out: Ratio of NGF increase, 24-hr culture
# [5] = 48 h, read-out: Ratio of NGF increase, 48-hr culture
# [6] = 24 h, Table 1, 0.03 mM, 24 hours, mean ± SE of four determinations, read-out: Ratio of NGF increase
# [7] = 24 h, Table 1, 0.10 mM, 24 hours, mean ± SE of four determinations, read-out: Ratio of NGF increase
# [8] = 24 h, read-out: Ratio of NGF increase, Table 3, 0.10 mM, 24 hours, mean ± SE of four determinations
# [9] = 24 h, read-out: Ratio of NGF increase, Table 3, 0.25 mM, 24 hours, mean ± SE of four determinations
# [10] = 24 h, read-out: Ratio of NGF increase, 24-hr culture, Table 4, 0.10 mM, 24-hr culture
# [11] = 24 h, read-out: Ratio of NGF increase, 24-hr culture, Table 4, 0.25 mM, 24-hr culture
# [12] = 48 h, read-out: Ratio of NGF increase, 48-hr culture, Table 4, 0.10 mM, 48-hr culture
# [13] = 48 h, read-out: Ratio of NGF increase, 48-hr culture, Table 4, 0.25 mM, 48-hr culture
# [14] = 24 h, Table 2, 0.03 mM, 24-hr culture, read-out: Ratio of NGF increase, 24-hr culture
# [15] = 24 h, Table 2, 0.15 mM, 24-hr culture, read-out: Ratio of NGF increase, 24-hr culture
# [16] = 48 h, Table 2, 0.03 mM, 48-hr culture, read-out: Ratio of NGF increase, 48-hr culture
# [17] = 48 h, Table 2, 0.15 mM, 48-hr culture, read-out: Ratio of NGF increase, 48-hr culture
structure (smiles),measurement,setting,value
"Oc1ccccc1O [R = Two H, R1 = H, R2 = H, Catechol]",fold induction at 100 µM,[1]; [3],2.51 ± 0.07
same,fold induction at 250 µM,[1]; [3],1.92 ± 0.09
same,fold induction at 30 µM,[2]; [3],1.03 ± 0.04
same,fold induction at 100 µM,[2]; [3],1.81 ± 0.09
same,fold induction at 30 µM,[2]; [4],1.15 ± 0.04
same,fold induction at 150 µM,[2]; [4],1.93 ± 0.12
same,fold induction at 30 µM,[2]; [5],1.31 ± 0.09
same,fold induction at 150 µM,[2]; [5],1.79 ± 0.2
"CCC(C)c1ccc(O)c(O)c1C (centres unmarked) [R = Two H, R1 = Methyl, R2 = sec-Butyl]",fold induction at 30 µM,[2]; [6],6.74 ± 0.25
same,fold induction at 100 µM,[2]; [7],7 ± 0.76
"CNC[C@H](O)c1ccc(O)c(O)c1 [l-epinephrine, reference compound]",fold induction at 100 µM,"[1]; 24 h, read-out: activity (NGF increase), 0.10 mM",8.62 ± 1.21
same,fold induction at 250 µM,"[1]; 24 h, read-out: activity (NGF increase), 0.25 mM",14.6 ± 2.67
same,fold induction at 50 µM,"[2]; 24 h, read-out: activity (NGF increase), 0.05 mM",6.29 ± 0.11
same,fold induction at 150 µM,"[2]; 24 h, read-out: activity (NGF increase), 0.15 mM",14 ± 0.83
"CCCCc1cccc(O)c1O [R = Two H, R1 = n-Butyl, R2 = H]",fold induction at 100 µM,[1]; [8],56.2 ± 1.87
same,fold induction at 250 µM,[1]; [9],93.3 ± 1.65
same,fold induction at 30 µM,[2]; [6],8.33 ± 0.52
"CCCc1c(C)ccc(O)c1O [R = Two H, R1 = n-Propyl, R2 = Methyl]",fold induction at 30 µM,[2]; [6],6.09 ± 0.65
same,fold induction at 100 µM,[2]; [7],6.98 ± 0.51
"CCCCCc1ccc(O)c(O)c1 [R = Two H, R1 = H, R2 = n-Pentyl]",fold induction at 100 µM,[1]; [8],43.8 ± 4.71
same,fold induction at 250 µM,[1]; [9],61 ± 5.82
same,fold induction at 30 µM,[2]; [6],6.37 ± 0.25
same,fold induction at 100 µM,[2]; [7],10.2 ± 0.71
"CC(=O)Oc1ccc(C)cc1OC(C)=O [R = Two acetyl, R1 = H, R2 = Methyl]",fold induction at 100 µM,[1]; [10],49.8 ± 6.44
same,fold induction at 250 µM,[1]; [11],41.2 ± 7.32
same,fold induction at 100 µM,[1]; [12],77.3 ± 6.52
same,fold induction at 250 µM,[1]; [13],82.4 ± 7.24
same,fold induction at 30 µM,[2]; [14],4.92 ± 0.94
same,fold induction at 150 µM,[2]; [15],4.21 ± 0.4
same,fold induction at 30 µM,[2]; [16],7.71 ± 0.86
same,fold induction at 150 µM,[2]; [17],6.27 ± 0.75
"CCCCc1ccc(O)c(O)c1C [R = Two H, R1 = Methyl, R2 = n-Butyl]",fold induction at 100 µM,[1]; [8],49.8 ± 3.65
same,fold induction at 250 µM,[1]; [9],76.2 ± 6.64
same,fold induction at 30 µM,[2]; [6],6.87 ± 0.6
same,fold induction at 100 µM,[2]; [7],7.73 ± 0.53
"Cc1ccc2oc(=O)oc2c1 [CO-, R1 = H, R2 = Methyl, 4-methyl-o-phenylenecarbonate]",fold induction at 100 µM,[1]; [10],52.4 ± 5.29
same,fold induction at 250 µM,[1]; [11],44.9 ± 4.25
same,fold induction at 100 µM,[1]; [12],73.4 ± 4.25
same,fold induction at 250 µM,[1]; [13],78.3 ± 6.5
same,fold induction at 30 µM,[2]; [14],4.39 ± 0.62
same,fold induction at 150 µM,[2]; [15],4.82 ± 0.55
same,fold induction at 30 µM,[2]; [16],7.54 ± 0.72
same,fold induction at 150 µM,[2]; [17],6.99 ± 0.52
"CC(C)(C)c1ccc(O)c(O)c1 [R = Two H, R1 = H, R2 = tert-Butyl]",fold induction at 100 µM,[1]; [8],18.5 ± 1.5
same,fold induction at 250 µM,[1]; [9],18.8 ± 2.92
same,fold induction at 30 µM,[2]; [6],3.45 ± 0.35
"CCc1ccc(O)c(O)c1CC [R = Two H, R1 = Ethyl, R2 = Ethyl]",fold induction at 100 µM,[1]; [8],16.7 ± 1.84
same,fold induction at 250 µM,[1]; [9],23.6 ± 1.9
same,fold induction at 30 µM,[2]; [6],3.01 ± 0.2
same,fold induction at 100 µM,[2]; [7],3.24 ± 0.19
"Cc1ccc2oc(=O)c(=O)oc2c1 [CO.CO-, R1 = H, R2 = Methyl, 6-methyl-1,4-benzodioxine-2,3-dione]",fold induction at 100 µM,[1]; [10],47.2 ± 3.98
same,fold induction at 250 µM,[1]; [11],50.6 ± 4.74
same,fold induction at 100 µM,[1]; [12],69.6 ± 3.25
same,fold induction at 250 µM,[1]; [13],70.2 ± 5.37
same,fold induction at 30 µM,[2]; [14],4.24 ± 0.58
same,fold induction at 150 µM,[2]; [15],4.62 ± 0.61
same,fold induction at 30 µM,[2]; [16],7.6 ± 0.43
same,fold induction at 150 µM,[2]; [17],7.03 ± 0.69
"CCc1cccc(O)c1O [R = Two H, R1 = Ethyl, R2 = H]",fold induction at 100 µM,[1]; [3],46.2 ± 3.97
same,fold induction at 250 µM,[1]; [3],62.8 ± 4.42
same,fold induction at 30 µM,[2]; [3],9.76 ± 1.4
same,fold induction at 100 µM,[2]; [3],11.7 ± 2.13
"CCCCc1c(C)ccc(O)c1O [R = Two H, R1 = n-Butyl, R2 = Methyl]",fold induction at 30 µM,[2]; [6],6.33 ± 0.75
same,fold induction at 100 µM,[2]; [7],6.9 ± 0.62
"COc1ccc(C)cc1OC [R = Two methyl, R1 = H, R2 = Methyl, reference compound]",fold induction at 30 µM,[2]; [4],1.04 ± 0.07
same,fold induction at 150 µM,[2]; [4],0.98 ± 0.06
same,fold induction at 30 µM,[2]; [5],1.03 ± 0.07
same,fold induction at 150 µM,[2]; [5],0.98 ± 0.02
"Cc1ccc(O)c(O)c1C [R = Two H, R1 = Methyl, R2 = Methyl]",fold induction at 30 µM,[2]; [6],2.86 ± 0.12
same,fold induction at 100 µM,[2]; [7],3.11 ± 0.22
"COc1ccc(C)cc1O [4-Methylguaiacol, reference compound]",fold induction at 30 µM,[2]; [14],1.09 ± 0.06
same,fold induction at 150 µM,[2]; [15],1.03 ± 0.05
same,fold induction at 30 µM,[2]; [16],1.1 ± 0.07
same,fold induction at 150 µM,[2]; [17],1 ± 0.09
